Assay results: patent US20250000822A1, “USE OF 2-HYDROXYBENZYLAMINE FOR THE TREATMENT OF SYSTEMIC LUPUS” (Vanderbilt University, priority 2019, published 2025)
“Also recorded” adds a separate entry of the source.

Key:
[1] = in vitro, in animals, or in humans, to date; cited from earlier work
healthy human volunteers [2] = settings: 500 and 750 mg TID for 2 weeks; cited from earlier work
HepG2 cells = assay: protection of HepG2 cells against H2O2-induced cytotoxicity; format: cell-based
Source text: (§1) 2-HOBA, for example, is naturally found in buckwheat seeds. 2-HOBA is highly reactive and found to react with isoLGs at a rate more than 3 orders of magnitude faster than the e-amine of lysine (see FIG. 3). By selectively reacting with isoLGs, 2-HOBA inhibits isoLG:protein adduct formation and subsequent isoLG-induced cell dysfunction.

B6.SLE123 mice [3] = assay: isoLG adduct accumulation in monocytes and dendritic cells of SLE-prone mice (flow cytometry); format: in vivo; settings: B6.SLE123 mice treated from 7 weeks of age, analysed at 32 weeks
Procedure: Quantitation of isoLG-adduct containing cells in (C) splenic DCs (D) circulating monocytes. (n=5-9, *P<0.05, **P<0.01, ***P<0.001, ****P<0.0001).
The present inventors have also shown that 2-HOBA reduces isoLG accumulation in monocytes and dendritic cells (DCs) of SLE-prone mice. B6.SLE123 mice were treated with 2-HOBA starting at 7 weeks of age (prior to disease presentation). At 32 weeks of age, peripheral blood, spleen, and bone marrow cells were harvested from B6.SLE123 and control (C57BL/6) mice. Flow cytometry was used to detect the surface markers CD11c, IAb, CD11b, F4/80, and Ly6c and isoLG adducts.

[4] = reaction of 2-HOBA with isoLGs (isoLG scavenging)
Source text: as §1

B6.SLE123 mice [5] = assay: SLE-associated renal inflammation, B6.SLE123 mice; format: in vivo
Procedure: Single cell suspensions were prepared from freshly isolated mouse kidney via enzymatic digestion and mechanical dissociation. Live cell singlets were analyzed. Representative FACS plots are presented for (A) CD3^+ T-cells. Quantitation of (B) CD45^+ leukocytes and (C) CD3^+ T-cells are represented. (n=6-8, *P<0.05, **P<0.01).
The present inventors have also shown that 2-HOBA reduces SLE-associated inflammation.

B6.SLE123 mice [6] = assay: SLE-associated renal injury and dysfunction, B6.SLE123 mice; format: in vivo
Procedure: Kidneys were sectioned and stained with […] silver stain; (A) representative glomeruli are presented. (B) Mice received IP injection of 4% normal saline at 10% of body weight and urine output was measured over 4 hours. (C) Urine albumin/creatine ratio. (D) Urinary NGAL. (n=6-8, *P<0.05, **P<0.01, ****P<0.0001).
The present inventors have also shown that 2-HOBA protects against SLE-associated renal injury and dysfunction. […] To assess renal function, 2-HOBA treated and untreated B6.SLE123 animals were injected with 4% normal saline at a volume equal to 10% of their body weight, and urine volume was measured over 4 hours.

healthy human volunteers [7] = settings: single doses up to 825 mg (highest dose tested); cited from earlier work
B6.SLE123 mice [8] = assay: plasma cell expansion and antibody titers, B6.SLE123 mice; format: in vivo
Procedure: (A) Representative FACS plots displaying CD138^+ and intracellular Igκ-light-chain^+ plasma cells from bone marrow. Quantitation of plasma cells as a percentage of CD45 cells are represented for (B) bone marrow. (C) Anti-dsDNA IgG antibody and (D) total plasma IgG at 1:100K dilution were analyzed by ELISA. (n=5-7, *P<0.05, **P<0.01, ***P<0.001, ****P<0.0001).
The present inventors have also shown that 2-HOBA reduces bone marrow plasma cell expansion and anti-dsDNA antibody titers. SLE is associated with an expansion of plasma cells and an amplification of auto-antibodies. Autoreactive plasma cells are believed to play an important role in SLE by generating antibodies that lead to the creation of immune complexes which deposit in peripheral tissues. Flow cytometry was performed to identify CD138^+/Igκ-light-chain^+ plasma cells in spleen and bone marrow cell preparations from B6.SLE123 animals treated with vehicle or 2-HOBA. B6.SLE123 animals had significant accumulation of spleen and bone marrow plasma cells which were attenuated by 2-HOBA (FIG. 7A-C).

[9] = SLE-prone mice, kidney sections
[10] = B6.SLE123, CD138+/Igκ-light-chain+ cells, flow cytometry

NCc1ccccc1O [2-HOBA, 2-hydroxybenzylamine]
serious adverse effects or potential issues observed [1]: no serious adverse effects or potential issues | accumulation of 2-HOBA and its primary metabolite (healthy human volunteers [2]): low | serious adverse events (healthy human volunteers [2]): no serious adverse events | tolerability of multiple doses (healthy human volunteers [2]): well tolerated | protection against H2O2-induced cytotoxicity (HepG2 cells): dramatically protected | isoLG accumulation in monocytes (B6.SLE123 mice [3]; peripheral blood monocytes): efficient scavenging; also recorded: significantly attenuated | isoLG accumulation in DCs (B6.SLE123 mice [3]; splenic dendritic cells): efficient scavenging; also recorded: significantly attenuated | isoLG scavenging [4]: potent isoLG scavengers | rate of reaction with isoLGs, faster than the e-amine of lysine ([4]; relative to e-amine of lysine): more than 3 orders of magnitude | renal inflammation (B6.SLE123 mice [5]): markedly reduced | renal CD3+ T-cells (B6.SLE123 mice [5]; kidney, flow cytometry): reduction | renal CD45+ cells (B6.SLE123 mice [5]; kidney, flow cytometry): reduction | albumin to creatinine ratio (B6.SLE123 mice [6]; B6.SLE123 mice, urine): improved | NGAL excretion (B6.SLE123 mice [6]; B6.SLE123 mice, urine, marker of tubular injury): improved | urine volume (B6.SLE123 mice [6]; B6.SLE123 mice, over 4 hours after injection of 4% normal saline at 10% of body weight): improved | glomerular hypercellularity (B6.SLE123 mice [6]; [9]): markedly improved | immune complex deposition (B6.SLE123 mice [6]; [9]): markedly improved | renal injury and dysfunction (B6.SLE123 mice [6]; mouse model of SLE (FIG. 6 legend)): attenuates | safety and tolerability of single doses (healthy human volunteers [7]): safe and well-tolerated | plasma anti-dsDNA antibody titers (B6.SLE123 mice [8]; B6.SLE123, ELISA): reduces; also recorded: markedly lower | total IgG antibody titers (B6.SLE123 mice [8]; B6.SLE123, plasma, ELISA): reduces; also recorded: markedly lower | accumulation of bone marrow plasma cells (B6.SLE123 mice [8]; [10]): reduces; also recorded: attenuated | accumulation of spleen plasma cells (B6.SLE123 mice [8]; [10]): attenuated
